How the values were obtained:
[1] = pharmacokinetic study in SD rats; assay type: in vivo; settings: female, rat, plasma, SD rats
Procedure: All animal experiments have been approved by the Institutional Animal Care and Treatment Committee of Sichuan University in China and were carried out in accordance with the approved guidelines. SPF female SD rats weighing 180–220 g were used in the pharmacokinetic study. The rats were fasted overnight before dosing. Every treatment group contain 3 rats. Rats were dosed with SKLB-TB1001 or BTZ043 suspension at 5 mg/kg (i.v. and p.o.). Compounds were dissolved in 5% DMSO/10% Solutol HS15 in saline for intravenous injection and suspended in 0.5% CMC for oral administration. Blood was collected from the jugular vein of each animal at the following times after administration of drugs: 0.083, 0.25, 0.5, 1, 2, 4, 6, 8 and 24 h after a single i.v. dosing; and 0.25, 0.5, 1, 2, 4, 6, 8 and 24 h after a single oral dosing. All blood samples were centrifuged at 3000 r/min for 10 min to obtain serum which was then stored at −20 °C. 150 μL of the serum was added to 500 μL of acetonitrile and the mixture was centrifuged at 13000 r/min for 10 min to remove protein. The supernatant was dried and dissolve in 100 μL of acetonitrile, the solution was centrifuged at 13000 r/min for 10 min. The supernatant was moved to a sample bottle for HPLC analysis. Total area under the concentration time curve (AUC), the elimination half-time (t1/2), the peak concentration (Cmax) and the time to reach peak concentration (Tmax) of samples were determined directly from the experimental data using WinNonlin V6.2.1.

[2] = in vivo acute toxicity study; parameters: species or system BALB/c mice; AST: unit not given here; settings: for ALB / ALP / AST / BUN / CHOL / TP: 1 g/kg i.p., 2 weeks, Mean ± SE, n = 5
Procedure: All animal experiments have been approved by the Institutional Animal Care and Treatment Committee of Sichuan University in China and were carried out in accordance with the approved guidelines. 20 BALB/c mice in both sexes were administered with SKLB-TB1001 CMC suspension at 1 g/kg by intraperitoneal injection, control mice remained untreated. Animals were continuously observed for 24 hours after administration. In each group, numbers of deaths and general behavior were recorded within 2 weeks, LD50 values were calculated. 2 weeks later, animals were sacrificed, blood samples were collected from the eye vein for biochemical and hematological tests. The organs and tissues of animals were removed and fixed in 10% formalin and embedded in paraffin for histological evaluation.

CYP2C19 = CYP2C19 (Homo sapiens, UniProt P33261); assay: CYP inhibition; assay type: in vitro ADME
Procedure: (§1) The In vitro ADME/T assays were conducted at WuXi AppTec Co. Ltd.(Shanghai). ClogP was calculated with ChemDraw Ultra 14.0. In the study of bi-directional permeability across MDR1-MDCKII cell monolayer, permeability was correlated with the apparent permeability coefficient Papp (cm/s), which was interpreted as follows: Low permeability( Papp ≤ 1.0×10^-6 cm/s), Moderate permeability(1.0×10^-6 < Papp < 5.5×10^-6 cm/s) or High permeability( Papp ≥ 5.5×10^-6 cm/s). ^aaqueous solubility at room temperature.

CYP2C9 = CYP2C9 (Homo sapiens, UniProt P11712); assay: CYP inhibition; assay type: in vitro ADME
Procedure: as §1

CYP2D6 = CYP2D6 (Homo sapiens, UniProt P10635); assay: CYP inhibition; assay type: in vitro ADME
Procedure: as §1

CYP3A4 = CYP3A4 (Homo sapiens, UniProt P08684); assay: CYP inhibition; assay type: in vitro ADME
Procedure: as §1

CYP3A4, sequence (P08684 whole entry): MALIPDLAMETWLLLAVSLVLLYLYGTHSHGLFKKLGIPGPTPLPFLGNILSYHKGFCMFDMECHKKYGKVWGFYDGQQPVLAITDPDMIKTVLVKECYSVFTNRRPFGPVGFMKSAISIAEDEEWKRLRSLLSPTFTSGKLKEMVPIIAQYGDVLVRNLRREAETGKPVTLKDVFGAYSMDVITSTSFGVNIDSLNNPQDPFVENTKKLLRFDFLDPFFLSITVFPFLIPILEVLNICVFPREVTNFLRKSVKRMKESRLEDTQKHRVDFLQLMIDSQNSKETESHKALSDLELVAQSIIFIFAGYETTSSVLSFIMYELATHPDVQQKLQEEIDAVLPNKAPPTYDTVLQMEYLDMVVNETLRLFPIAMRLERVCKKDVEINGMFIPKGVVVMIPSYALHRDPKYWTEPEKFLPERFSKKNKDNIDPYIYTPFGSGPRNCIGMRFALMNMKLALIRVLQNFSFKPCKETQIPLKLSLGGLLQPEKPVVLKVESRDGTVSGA
CYP2C19, sequence (P33261 whole entry): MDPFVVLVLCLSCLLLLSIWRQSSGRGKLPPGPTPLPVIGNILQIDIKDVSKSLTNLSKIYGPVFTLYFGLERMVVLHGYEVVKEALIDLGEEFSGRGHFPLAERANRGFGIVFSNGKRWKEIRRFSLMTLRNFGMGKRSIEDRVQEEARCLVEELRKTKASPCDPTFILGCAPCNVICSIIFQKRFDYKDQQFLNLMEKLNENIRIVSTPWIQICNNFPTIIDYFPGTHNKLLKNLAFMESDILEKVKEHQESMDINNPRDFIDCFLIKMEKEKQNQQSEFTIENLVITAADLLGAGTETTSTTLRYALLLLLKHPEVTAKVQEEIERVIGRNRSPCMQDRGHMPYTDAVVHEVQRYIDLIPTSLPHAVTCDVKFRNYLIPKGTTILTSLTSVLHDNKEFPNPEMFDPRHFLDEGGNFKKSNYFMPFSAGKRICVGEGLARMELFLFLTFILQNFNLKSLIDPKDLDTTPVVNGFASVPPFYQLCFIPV
CYP2D6, sequence (P10635 whole entry): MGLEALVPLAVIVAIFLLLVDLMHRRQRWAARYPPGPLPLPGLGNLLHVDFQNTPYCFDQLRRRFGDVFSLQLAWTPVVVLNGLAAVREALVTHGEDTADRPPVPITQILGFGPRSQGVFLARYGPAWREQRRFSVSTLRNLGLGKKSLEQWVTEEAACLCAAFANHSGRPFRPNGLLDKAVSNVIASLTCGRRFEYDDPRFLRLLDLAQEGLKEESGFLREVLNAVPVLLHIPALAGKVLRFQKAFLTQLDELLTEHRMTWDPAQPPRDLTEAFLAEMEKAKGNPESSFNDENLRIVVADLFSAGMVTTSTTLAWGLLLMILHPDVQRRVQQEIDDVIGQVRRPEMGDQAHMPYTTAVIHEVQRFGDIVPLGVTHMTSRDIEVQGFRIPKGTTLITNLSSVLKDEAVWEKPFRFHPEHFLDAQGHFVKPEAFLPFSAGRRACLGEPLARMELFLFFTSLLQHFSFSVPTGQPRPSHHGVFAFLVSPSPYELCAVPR
CYP2C9, sequence (P11712 whole entry): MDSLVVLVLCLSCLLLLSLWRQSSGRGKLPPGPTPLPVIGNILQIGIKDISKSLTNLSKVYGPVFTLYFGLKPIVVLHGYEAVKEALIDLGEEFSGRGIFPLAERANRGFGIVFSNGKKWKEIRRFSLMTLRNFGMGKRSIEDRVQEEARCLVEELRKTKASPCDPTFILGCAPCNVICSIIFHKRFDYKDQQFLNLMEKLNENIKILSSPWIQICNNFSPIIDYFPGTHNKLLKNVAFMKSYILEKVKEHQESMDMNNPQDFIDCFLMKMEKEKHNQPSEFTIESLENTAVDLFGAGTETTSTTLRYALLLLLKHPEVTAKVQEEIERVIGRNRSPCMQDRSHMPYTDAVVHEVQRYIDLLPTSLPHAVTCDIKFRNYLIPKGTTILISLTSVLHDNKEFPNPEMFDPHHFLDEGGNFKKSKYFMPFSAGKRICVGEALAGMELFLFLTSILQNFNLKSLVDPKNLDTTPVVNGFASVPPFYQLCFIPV

Compound: O=[N+]([O-])c1cc(C(F)(F)F)cc2c(=S)nc(N3CCC4(CC3)OCCO4)sc12 [SKLB-TB1001, 8-nitro-2-(1,4-dioxa-8-azaspiro[4.5]decan-8-yl)-6-(trifluoromethyl)-4H-benzo[e][1,3]thiazine-4-thione]
- bioavailability ([1]; oral, AUC (p.o., 5 mg/kg)/AUC(i.v., 5 mg/kg), read-out: F, absolute oral bioavailability): 44.4%
- half-life ([1]; po, 5 mg/kg, terminal half-life for elimination): 1.45 h
- AUC ([1]; po, p.o., 5 mg/kg, t = 0 to infinity, read-out: AUC): 847 ng·h/mL
- Tmax ([1]; po, p.o., 5 mg/kg, read-out: Tmax): 1.13 h
- Cmax ([1]; po, p.o., 5 mg/kg, read-out: Cmax): 193 ng/mL
- death in acute single dose toxicity studies ([2]; BALB/c mice, 1 g/kg, 14 days): no death
- pathological changes in heart, liver, lung, kidneys and spleen ([2]; BALB/c mice, 1 g/kg, 14 days): No observable pathological changes
- maximum non-toxic dose ([2]; BALB/c mice, single dose, intraperitoneal): greater than 1 g/kg
- ALB ([2]; Female Treatment): 32.18 ± 0.65 g/L
- ALP ([2]; Female Treatment): 162.00 ± 4.70 U/L
- AST ([2]; Female Treatment): 154.60 ± 5.57
- BUN ([2]; Female Treatment): 7.06 ± 0.35 mmol/L
- CHOL ([2]; Female Treatment): 3.31 ± 0.08 mmol/L
- TP ([2]; Female Treatment): 68.56 ± 1.42 g/L
- ALB ([2]; Male Treatment): 32.84 ± 0.44 g/L
- ALP ([2]; Male Treatment): 159.20 ± 6.98 U/L
- AST ([2]; Male Treatment): 153.40 ± 4.30
- BUN ([2]; Male Treatment): 7.10 ± 0.60 mmol/L
- CHOL ([2]; Male Treatment): 3.31 ± 0.07 mmol/L
- TP ([2]; Male Treatment): 68.38 ± 1.58 g/L
- IC50 (CYP2C19): > 10 µM
- IC50 (CYP2C9): > 10 µM
- IC50 (CYP2D6): > 10 µM
- IC50 (CYP3A4): > 10 µM
